Test results published in publication PMC6407917, “Identification of GSK3186899/DDD853651 as a Preclinical Development Candidate for the Treatment of Visceral Leishmaniasis” (Journal of Medicinal Chemistry, 2018).

Tests used:
Test in all cases: biochemical
Parameters in all cases: species or system HEK293/K-562/placenta mixed human extract; Kinobeads chemoproteomic competition binding, quantified by TMT LC-MS/MS, dose response up to 20 uM
TEC = TEC (Homo sapiens, UniProt P42680)
RPS6KA4 = RPS6KA4 (Homo sapiens, UniProt O75676)
TESK1 = TESK1 (Homo sapiens, UniProt Q15569)
PAK4 = PAK4 (Homo sapiens, UniProt O96013)
MAP2K4 = MAP2K4 (Homo sapiens, UniProt P45985)
RIOK2 = RIOK2 (Homo sapiens, UniProt Q9BVS4)

Measured: IC50

Chain of MAP2K4 (P45985 whole entry): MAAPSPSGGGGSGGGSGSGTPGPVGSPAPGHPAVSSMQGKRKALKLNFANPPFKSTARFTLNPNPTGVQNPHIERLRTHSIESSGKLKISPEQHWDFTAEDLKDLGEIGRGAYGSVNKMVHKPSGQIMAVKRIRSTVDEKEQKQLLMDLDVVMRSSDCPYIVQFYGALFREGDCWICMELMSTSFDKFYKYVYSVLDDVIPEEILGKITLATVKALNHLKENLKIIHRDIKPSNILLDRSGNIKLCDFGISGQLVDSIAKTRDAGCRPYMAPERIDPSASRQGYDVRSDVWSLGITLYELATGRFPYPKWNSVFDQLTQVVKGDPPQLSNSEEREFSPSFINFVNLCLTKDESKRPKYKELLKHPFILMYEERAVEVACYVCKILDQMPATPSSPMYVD
Chain of RPS6KA4 (O75676 whole entry): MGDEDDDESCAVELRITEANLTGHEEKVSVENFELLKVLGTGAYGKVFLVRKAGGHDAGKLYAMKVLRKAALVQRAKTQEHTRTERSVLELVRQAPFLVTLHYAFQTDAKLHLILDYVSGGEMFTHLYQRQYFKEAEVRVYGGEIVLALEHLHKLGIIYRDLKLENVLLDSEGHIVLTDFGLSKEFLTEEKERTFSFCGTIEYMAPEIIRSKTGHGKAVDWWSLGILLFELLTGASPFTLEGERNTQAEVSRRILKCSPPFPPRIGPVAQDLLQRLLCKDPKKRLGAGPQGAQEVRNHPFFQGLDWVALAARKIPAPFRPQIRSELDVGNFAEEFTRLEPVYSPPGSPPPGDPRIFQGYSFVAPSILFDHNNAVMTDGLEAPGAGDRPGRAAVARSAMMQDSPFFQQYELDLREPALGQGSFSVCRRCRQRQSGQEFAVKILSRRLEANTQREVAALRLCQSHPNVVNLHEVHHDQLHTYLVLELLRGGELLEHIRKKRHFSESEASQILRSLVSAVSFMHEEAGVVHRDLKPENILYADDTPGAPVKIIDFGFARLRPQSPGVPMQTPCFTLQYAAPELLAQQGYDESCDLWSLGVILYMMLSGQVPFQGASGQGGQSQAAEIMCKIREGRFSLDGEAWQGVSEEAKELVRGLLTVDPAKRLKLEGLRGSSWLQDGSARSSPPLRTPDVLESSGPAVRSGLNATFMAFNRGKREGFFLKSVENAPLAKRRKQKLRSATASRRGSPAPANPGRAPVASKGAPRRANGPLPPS
Chain of PAK4 (O96013 whole entry): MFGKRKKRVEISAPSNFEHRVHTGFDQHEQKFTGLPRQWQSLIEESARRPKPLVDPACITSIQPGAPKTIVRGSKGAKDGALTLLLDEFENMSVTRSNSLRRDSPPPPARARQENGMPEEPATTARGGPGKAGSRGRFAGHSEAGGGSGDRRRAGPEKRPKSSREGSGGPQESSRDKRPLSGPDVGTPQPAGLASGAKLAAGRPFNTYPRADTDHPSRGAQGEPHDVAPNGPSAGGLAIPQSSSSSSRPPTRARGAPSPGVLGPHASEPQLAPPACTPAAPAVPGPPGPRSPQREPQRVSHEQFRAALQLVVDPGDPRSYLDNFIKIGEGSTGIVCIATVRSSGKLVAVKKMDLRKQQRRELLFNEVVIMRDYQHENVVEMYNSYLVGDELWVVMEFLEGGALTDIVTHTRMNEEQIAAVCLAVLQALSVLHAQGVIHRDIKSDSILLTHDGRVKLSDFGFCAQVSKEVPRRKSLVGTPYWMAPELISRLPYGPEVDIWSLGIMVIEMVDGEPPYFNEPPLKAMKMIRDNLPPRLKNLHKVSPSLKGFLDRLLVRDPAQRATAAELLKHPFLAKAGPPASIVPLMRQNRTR
Chain of RIOK2 (Q9BVS4 whole entry): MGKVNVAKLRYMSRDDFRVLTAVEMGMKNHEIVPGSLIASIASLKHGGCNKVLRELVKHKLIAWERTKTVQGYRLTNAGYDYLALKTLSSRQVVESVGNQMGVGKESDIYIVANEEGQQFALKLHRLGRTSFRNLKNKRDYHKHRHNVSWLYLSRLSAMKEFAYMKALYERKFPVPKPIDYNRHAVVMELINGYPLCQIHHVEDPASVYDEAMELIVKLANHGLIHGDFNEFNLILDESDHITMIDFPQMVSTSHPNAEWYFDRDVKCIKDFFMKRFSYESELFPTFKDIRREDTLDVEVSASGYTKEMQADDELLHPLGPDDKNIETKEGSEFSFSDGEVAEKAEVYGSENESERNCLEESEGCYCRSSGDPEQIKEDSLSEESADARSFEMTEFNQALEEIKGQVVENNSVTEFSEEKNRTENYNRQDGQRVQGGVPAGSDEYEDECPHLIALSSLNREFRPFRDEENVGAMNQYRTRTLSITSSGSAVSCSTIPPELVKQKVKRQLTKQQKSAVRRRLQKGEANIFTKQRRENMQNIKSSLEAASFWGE
Chain of TEC (P42680 whole entry): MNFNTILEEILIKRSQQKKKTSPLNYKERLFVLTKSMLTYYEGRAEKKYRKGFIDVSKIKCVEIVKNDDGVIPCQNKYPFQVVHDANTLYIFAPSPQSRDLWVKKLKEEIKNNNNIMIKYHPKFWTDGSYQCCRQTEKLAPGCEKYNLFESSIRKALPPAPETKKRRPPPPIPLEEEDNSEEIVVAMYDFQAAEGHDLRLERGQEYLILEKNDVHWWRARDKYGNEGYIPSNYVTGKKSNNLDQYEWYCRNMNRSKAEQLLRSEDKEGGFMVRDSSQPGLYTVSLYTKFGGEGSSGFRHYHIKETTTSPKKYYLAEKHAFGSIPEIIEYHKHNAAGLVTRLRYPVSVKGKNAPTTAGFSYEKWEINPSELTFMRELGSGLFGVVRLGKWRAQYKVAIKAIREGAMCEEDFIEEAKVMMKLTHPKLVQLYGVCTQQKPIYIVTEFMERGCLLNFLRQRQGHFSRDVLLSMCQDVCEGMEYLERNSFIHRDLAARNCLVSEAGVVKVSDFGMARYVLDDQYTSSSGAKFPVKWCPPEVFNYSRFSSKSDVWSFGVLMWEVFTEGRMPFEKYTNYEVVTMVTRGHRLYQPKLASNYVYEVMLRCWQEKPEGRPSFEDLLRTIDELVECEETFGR
Chain of TESK1 (Q15569 whole entry): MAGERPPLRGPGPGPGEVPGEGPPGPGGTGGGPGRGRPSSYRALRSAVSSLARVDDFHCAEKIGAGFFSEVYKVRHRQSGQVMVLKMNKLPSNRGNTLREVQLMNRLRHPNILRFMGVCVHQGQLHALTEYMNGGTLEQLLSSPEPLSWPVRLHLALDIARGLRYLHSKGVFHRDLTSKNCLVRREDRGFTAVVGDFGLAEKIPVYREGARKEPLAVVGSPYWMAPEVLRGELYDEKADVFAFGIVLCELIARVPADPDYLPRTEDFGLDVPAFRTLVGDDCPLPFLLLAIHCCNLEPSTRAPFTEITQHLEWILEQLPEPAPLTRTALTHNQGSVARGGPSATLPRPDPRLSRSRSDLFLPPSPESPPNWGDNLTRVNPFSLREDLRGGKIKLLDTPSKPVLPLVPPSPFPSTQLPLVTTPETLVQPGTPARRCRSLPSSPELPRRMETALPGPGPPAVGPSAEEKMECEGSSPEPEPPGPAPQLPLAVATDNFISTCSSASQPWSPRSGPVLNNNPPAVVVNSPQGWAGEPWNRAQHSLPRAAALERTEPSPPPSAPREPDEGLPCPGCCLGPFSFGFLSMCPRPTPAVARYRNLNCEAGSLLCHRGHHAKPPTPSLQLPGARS

COc1nc(N[C@H]2CC[C@H](NS(=O)(=O)CC(C)C)CC2)nc2[nH]nc(N3CCOC[C@H]3C)c12 [compound 39, N-(trans-4-((4-Methoxy-3-((R)-3-methylmorpholino)-1H-pyrazolo[3,4-d]pyrimidin-6-yl)amino)cyclohexyl)-2-methylpropane-1-sulfonamide]
≥ 20 µM: all assays above
